{
  "source": "patent US7527935B2",
  "about": "“G-protein coupled receptor having eicosanoid as ligand and gene thereof” (Mitsubishi Tanabe Pharma Corporation, priority 2002, dated 2009)",
  "key": {"TG1019 protein": {"test_system": "TG1019 protein", "assay": "Forskolin-stimulated cAMP production in CHO cells transiently expressing TG1019", "format": "cell-based, human", "description": "A TG1019 protein expression vector was transiently introduced to CHO cells to have a recombinant TG1019 protein expressed, and using these cells, a function of TG1019 protein as an eicosanoid receptor was confirmed.\nAt first, a DNA encoding an entire region of TG1019 protein obtained in Example 1 (1) mentioned above was subcloned in NotI recognition site of a vector plasmid pcDNA3.1 (an expression vector, available from Invitrogen), to obtain TG1019 protein expression vector plasmid pcDNA3.1-TG1019.\nCHO cells (1×10^6 cells) were cultured in DMEM/F-12 culture medium supplemented with 10% fetal bovine serum at 37° C. for 20 hours. Using these cells, transfection was carried out by adding plasmid DNA (pcDNA3.1-TG1019, or as a control, vector pcDNA3.1) (5 μg) and transfection reagent (LipofectAMINE, available from Invitrogen), and the mixture was cultured for 24 hours. In case of using pretreatment with pertussis toxin, pertussis toxin (100 ng) was added after 20 hours of culture and the mixture was successively cultured for 4 hours.\nThe cells after culture were collected, washed, and suspended in a KRH buffer (Krebs-Ringer Hepes buffer, pH 7.4) containing rolipram (25 mM). The suspension was incubated at 37° C. for 30 minutes and inoculated in a 96 well plate (5-7.5×10^4 cells/90 μl/well).\nSubsequently, KRH buffer (90 μl/well) containing forskolin (1 μM) and 5-oxo-ETE (the final concentration 0M or 10^−11 to 10^−5 M) was added thereto, and after the mixture was incubated at room temperature for 10 minutes, the cells were lysed to measure a cAMP production amount.\nThe cAMP production amount was measured using cAMP enzyme immunoassay system available from Amersham Biosciences."}, "eosinophils": {"test_system": "eosinophils", "assay": "Migration test of eosinophils", "format": "cell-based", "conditions": "purified human eosinophils; 1.5 hours", "procedure": "Blood was collected (50 ml) from healthy male adult volunteers, and from the collected peripheral blood, eosinophils were purified as follows.\nAfter washing the eosinophils and neutrophils purified in the above sections, the cells were suspended in RPMI1640 supplemented with 0.1% BSA (not containing phenol red) which contains 3 μM Calcein-AM (Dojindo laboratories, fluorescence reagent), so that the cell count became 1×10^6 cells/ml. The suspension was incubated at 37° C. for 30 minutes. The cells were washed twice with the same culture medium, and suspended in the same medium so that the cell count became 1×10^6 cells/ml.\nUsing these cells, cell migration test was carried out using 2 chambers for migration test (Transwell; 3 μm pore, 24 well, 3422 [Costar]). […]\nAfter the reaction, the chambers were removed, and to the lower chamber was added 66 μl of 10× lysis buffer (5% Triton X-100 dissolved in PBS, 10% ethanol). […] 200 μl of the cell lysate was transferred to 96 well black plate (237105, Nunc), and fluorescence intensities were measured using a fluorometer (ARVO™ SX, Wallac) with an excitation wavelength of 485 nm and a fluorescence wavelength of 535 nm."}},
  "data": [
    {"smiles": "CCCCC/C=C\\C/C=C\\C/C=C\\C=C\\C(=O)CCCC(=O)O", "note": "[5-oxo-ETE, 5-oxo-6E,8Z,11Z,14Z-eicosatetraenoic acid]", "values": [
      {"measurement": "cAMP production amount upon forskolin stimulation", "setting": "TG1019 protein; CHO cells with pcDNA3.1-TG1019 introduced, forskolin 1 μM, concentration-dependent", "result": "inhibited"},
      {"measurement": "cAMP production", "setting": "TG1019 protein; TG1019-expressing CHO cells pretreated with pertussis toxin", "result": "not inhibited"},
      {"measurement": "cAMP production amount upon forskolin stimulation", "setting": "TG1019 protein; control CHO cells with only vector introduced", "result": "not changed"},
      {"measurement": "migration of eosinophils", "setting": "eosinophils", "result": "has an ability to make these cells migrate"}
    ]}
  ]
}
